Five molecules from US20230150974A1 (Foghorn Therapeutics Inc., priority 2020, published 2023) can be followed below.

One assay concerns the target T1, HiBiT-BRM (Homo sapiens, UniProt P51531).
T1 construct: expressed in transfected cells
Nature of the assay: HiBiT-BRM cell-based degradation assay (Nano-Glo HiBiT Lytic Detection). Conditions: HeLa cells expressing HiBiT-BRM, 24 h; for DC50: read-out: BRM HiBit Degradation IC50. The gist of the method: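 Luminescence from HiBiT–LgBiT complementation in lysates of a stable HiBiT-BRM HeLa line measured after 24 h compound exposure. Degradation expressed as percent relative to DMSO-treated cells and cells given 2 μM of a known BRM/BRG1 degrader.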
(The HiBiT peptide binds its large partner to form an active luciferase.)

The next assay addresses T2, HiBit-BRG1 (Homo sapiens, UniProt P51532).
T2 construct: expressed in transfected cells
As to the kind of experiment: HiBit-BRG1 cell-based degradation assay (Nano-Glo HiBiT Lytic Detection). Particulars: HeLa cells expressing HiBit-BRG1 and LgBit, 24 h; for DC50: read-out: BRG1 HiBit Degradation IC50; for Dmax: read-out: BRG1 HiBit Degradation Maximum (%). Put shortly:
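Luminescence from reconstituted NanoBiT luciferase after lytic detection served as read-out of remaining HiBit-BRG1 in stable HeLa cells, which also express LgBit. Cells were seeded at 5000 per well and incubated with compound for 24 h. DMSO and a 2 μM known degrader defined the control range.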

T2 sequence (P51532 whole entry): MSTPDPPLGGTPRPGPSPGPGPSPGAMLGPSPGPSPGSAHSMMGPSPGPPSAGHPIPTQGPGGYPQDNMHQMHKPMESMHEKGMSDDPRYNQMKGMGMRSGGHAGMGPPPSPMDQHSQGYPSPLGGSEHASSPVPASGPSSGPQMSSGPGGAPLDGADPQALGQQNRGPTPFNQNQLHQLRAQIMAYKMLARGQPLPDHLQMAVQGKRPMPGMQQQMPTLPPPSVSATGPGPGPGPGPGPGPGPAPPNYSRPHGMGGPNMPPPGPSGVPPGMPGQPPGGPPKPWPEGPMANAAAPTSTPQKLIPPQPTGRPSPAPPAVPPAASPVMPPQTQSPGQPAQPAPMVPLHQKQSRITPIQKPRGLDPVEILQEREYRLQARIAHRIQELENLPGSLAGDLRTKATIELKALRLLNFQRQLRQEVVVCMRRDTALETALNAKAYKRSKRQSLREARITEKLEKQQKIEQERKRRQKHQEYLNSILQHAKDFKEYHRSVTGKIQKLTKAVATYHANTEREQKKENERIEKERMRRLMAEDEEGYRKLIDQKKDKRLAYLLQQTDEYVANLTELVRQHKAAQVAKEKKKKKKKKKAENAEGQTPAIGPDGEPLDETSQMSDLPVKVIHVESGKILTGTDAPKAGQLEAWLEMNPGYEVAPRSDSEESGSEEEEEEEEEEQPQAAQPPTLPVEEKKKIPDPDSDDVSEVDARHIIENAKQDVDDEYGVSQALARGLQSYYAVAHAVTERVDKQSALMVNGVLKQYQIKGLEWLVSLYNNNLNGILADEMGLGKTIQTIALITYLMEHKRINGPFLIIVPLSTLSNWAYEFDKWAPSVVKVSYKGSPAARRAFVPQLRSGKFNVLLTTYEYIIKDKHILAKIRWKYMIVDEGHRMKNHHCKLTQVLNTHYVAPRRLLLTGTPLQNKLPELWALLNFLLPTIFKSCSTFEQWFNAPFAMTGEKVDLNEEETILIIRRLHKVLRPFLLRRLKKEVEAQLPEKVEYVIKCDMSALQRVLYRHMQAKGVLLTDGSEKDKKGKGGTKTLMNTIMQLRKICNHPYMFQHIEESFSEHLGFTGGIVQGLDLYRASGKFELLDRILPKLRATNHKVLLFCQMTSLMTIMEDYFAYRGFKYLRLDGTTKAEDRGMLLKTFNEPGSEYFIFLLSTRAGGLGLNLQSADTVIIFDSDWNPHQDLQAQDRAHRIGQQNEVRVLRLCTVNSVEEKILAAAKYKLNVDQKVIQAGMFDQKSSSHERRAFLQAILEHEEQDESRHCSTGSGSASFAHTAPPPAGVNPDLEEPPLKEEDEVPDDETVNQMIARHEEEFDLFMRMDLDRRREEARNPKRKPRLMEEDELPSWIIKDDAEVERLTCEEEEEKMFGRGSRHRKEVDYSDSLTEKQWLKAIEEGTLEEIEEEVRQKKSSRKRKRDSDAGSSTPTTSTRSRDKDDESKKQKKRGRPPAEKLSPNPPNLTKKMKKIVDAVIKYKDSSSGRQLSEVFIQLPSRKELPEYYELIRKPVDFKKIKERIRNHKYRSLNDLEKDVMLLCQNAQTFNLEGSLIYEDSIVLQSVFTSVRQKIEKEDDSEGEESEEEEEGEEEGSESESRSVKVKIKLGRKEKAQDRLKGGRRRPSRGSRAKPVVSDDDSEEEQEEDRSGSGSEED
T1 sequence (P51531 whole entry): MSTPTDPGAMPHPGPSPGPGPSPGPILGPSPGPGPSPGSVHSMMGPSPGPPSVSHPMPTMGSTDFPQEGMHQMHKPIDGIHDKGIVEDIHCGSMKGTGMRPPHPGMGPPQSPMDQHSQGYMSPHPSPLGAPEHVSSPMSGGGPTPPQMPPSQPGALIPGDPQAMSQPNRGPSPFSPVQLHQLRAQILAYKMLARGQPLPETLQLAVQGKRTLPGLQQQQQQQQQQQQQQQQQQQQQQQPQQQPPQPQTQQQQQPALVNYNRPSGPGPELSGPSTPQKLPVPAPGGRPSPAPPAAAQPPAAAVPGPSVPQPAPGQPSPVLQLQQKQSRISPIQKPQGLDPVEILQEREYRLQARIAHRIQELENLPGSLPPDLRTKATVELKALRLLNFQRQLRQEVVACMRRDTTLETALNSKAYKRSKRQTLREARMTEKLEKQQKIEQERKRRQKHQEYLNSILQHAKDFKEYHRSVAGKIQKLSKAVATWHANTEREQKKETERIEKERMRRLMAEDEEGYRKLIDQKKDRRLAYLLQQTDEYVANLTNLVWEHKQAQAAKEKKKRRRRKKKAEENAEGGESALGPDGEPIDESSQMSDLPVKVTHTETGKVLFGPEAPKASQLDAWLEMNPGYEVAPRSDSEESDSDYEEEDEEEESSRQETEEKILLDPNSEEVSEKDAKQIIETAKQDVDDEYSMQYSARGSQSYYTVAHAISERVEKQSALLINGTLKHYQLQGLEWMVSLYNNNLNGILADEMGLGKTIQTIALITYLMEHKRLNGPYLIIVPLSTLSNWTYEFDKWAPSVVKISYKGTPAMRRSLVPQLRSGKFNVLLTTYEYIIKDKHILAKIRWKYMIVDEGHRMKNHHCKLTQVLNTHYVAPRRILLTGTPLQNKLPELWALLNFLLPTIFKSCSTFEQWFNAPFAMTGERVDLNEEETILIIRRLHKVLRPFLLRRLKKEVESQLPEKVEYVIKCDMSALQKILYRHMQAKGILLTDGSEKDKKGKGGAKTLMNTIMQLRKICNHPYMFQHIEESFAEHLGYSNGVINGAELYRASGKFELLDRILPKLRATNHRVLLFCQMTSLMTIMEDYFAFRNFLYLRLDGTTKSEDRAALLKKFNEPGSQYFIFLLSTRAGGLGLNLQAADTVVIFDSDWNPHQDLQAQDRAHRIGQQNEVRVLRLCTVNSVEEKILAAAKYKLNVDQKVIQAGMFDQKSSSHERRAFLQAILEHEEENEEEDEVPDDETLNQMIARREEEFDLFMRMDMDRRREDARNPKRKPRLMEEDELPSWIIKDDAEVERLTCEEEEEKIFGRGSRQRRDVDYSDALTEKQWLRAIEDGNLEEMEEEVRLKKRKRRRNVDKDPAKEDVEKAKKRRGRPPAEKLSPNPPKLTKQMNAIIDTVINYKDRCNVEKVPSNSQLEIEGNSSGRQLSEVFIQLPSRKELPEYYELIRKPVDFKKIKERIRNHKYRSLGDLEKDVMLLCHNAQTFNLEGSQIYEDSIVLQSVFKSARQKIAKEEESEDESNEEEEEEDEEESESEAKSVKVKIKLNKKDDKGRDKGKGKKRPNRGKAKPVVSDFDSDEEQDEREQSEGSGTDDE

In the case of `Cc1ncsc1-c1ccc([C@H](C)NC(=O)[C@@H]2C[C@@H](O)CN2C(=O)[C@@H](NC(=O)CCN2CCN(CCCCC(=O)NCc3ccc(CCOc4cc(-c5ccccc5O)nnc4N)cc3)CC2)C(C)(C)C)cc1` [Compound 265, (2S,4R)-1-((S)-2-(3-(4-(5-((4-(2-((3-amino-6-(2-hydroxyphenyl)pyridazin-4-yl)oxy)ethyl)benzyl)amino)-5-oxopentyl)piperazin-1-yl)propanamido)-3,3-dimethylbutanoyl)-4-hydroxy-N-((S)-1-(4-(4-methylthiazol-5-yl)phenyl)ethyl)pyrrolidine-2-carboxamide], at HiBiT-BRM, the “BRM HiBit Degradation Maximum (%)” value is given as “B (“B” indicates maximum degradation ≥50%)” and the DC50 is above 1000 nM. Also, at HiBit-BRG1, the DC50 is above 1000 nM and the Dmax was below 50%.
With `Cc1ncsc1-c1ccc(CNC(=O)[C@@H]2C[C@@H](O)CN2C(=O)[C@@H](NC(=O)CCCCCCCCCCCCCCCC(=O)NCc2ccc(CCN(C)c3cc(-c4ccccc4O)nnc3N)cc2)C(C)(C)C)cc1` [Compound 133, N1-(4-(2-((3-amino-6-(2-hydroxyphenyl)pyridazin-4-yl)(methyl)amino)ethyl)benzyl)-N17-((S)-1-((2S,4R)-4-hydroxy-2-((4-(4-methylthiazol-5-yl)benzyl)carbamoyl)pyrrolidin-1-yl)-3,3-dimethyl-1-oxobutan-2-yl)heptadecanediamide], on HiBiT-BRM, the “BRM HiBit Degradation Maximum (%)” value is listed as “B (“B” indicates maximum degradation ≥50%)” and the DC50 is above 100 nM. On HiBit-BRG1, the DC50 was above 1000 nM and the Dmax is below 50%.
For `Cc1ncsc1-c1ccc([C@H](C)NC(=O)[C@@H]2C[C@@H](O)CN2C(=O)[C@@H](NC(=O)CCCCCCCCCCN2CCN(Cc3ccc(CCOc4cc(-c5ccccc5O)nnc4N)cc3)CC2)C(C)(C)C)cc1` [Compound 263], on HiBiT-BRM, the “BRM HiBit Degradation Maximum (%)” value is “A (“A” indicates maximum degradation ≥75%)” and the DC50 was above 10 nM. Also, on HiBit-BRG1, the DC50 is above 1000 nM and the Dmax is below 50%.
Consider `Cc1ncsc1-c1ccc([C@H](C)NC(=O)[C@@H]2C[C@@H](O)CN2C(=O)[C@@H](c2cc(OCCN3CC(OC4CCN(C(=O)c5ccc(CCOc6cc(-c7ccccc7O)nnc6N)cc5)CC4)C3)no2)C(C)C)cc1` [Compound 237, (2S,4R)-1-((R)-2-(3-(2-(3-((1-(4-(2-((3-amino-6-(2-hydroxyphenyl)pyridazin-4-yl)oxy)ethyl)benzoyl)piperidin-4-yl)oxy)azetidin-1-yl)ethoxy)isoxazol-5-yl)-3-methylbutanoyl)-4-hydroxy-N-((S)-1-(4-(4-methylthiazol-5-yl)phenyl)ethyl)pyrrolidine-2-carboxamide], for which, at HiBiT-BRM, the “BRM HiBit Degradation Maximum (%)” value is listed as “A (“A” indicates maximum degradation ≥75%)” and the DC50 is above 10 nM. For the same molecule, on HiBit-BRG1, the DC50 is above 100 nM and the Dmax is above 50%.
For the molecule `Cc1ncsc1-c1ccc([C@H](C)NC(=O)[C@@H]2C[C@@H](O)CN2C(=O)[C@@H](c2cc(OCCN3C[C@@H]4CN(C(=O)c5ccc(CCOc6cc(-c7ccccc7O)nnc6N)cc5)C[C@@H]4C3)no2)C(C)C)cc1` [Compound 190, (2S,4R)-1-((2R)-2-(3-(2-(5-(4-(2-((3-amino-6-(2-hydroxyphenyl)pyridazin-4-yl)oxy)ethyl)benzoyl)hexahydropyrrolo[3,4-c]pyrrol-2(1H)-yl)ethoxy)isoxazol-5-yl)-3-methylbutanoyl)-4-hydroxy-N-((S)-1-(4-(4-methylthiazol-5-yl)phenyl)ethyl)pyrrolidine-2-carboxamide], at HiBiT-BRM, the “BRM HiBit Degradation Maximum (%)” value is recorded as “A (“A” indicates maximum degradation ≥75%)” and the DC50 is above 10 nM. Further, on HiBit-BRG1, the DC50 was above 100 nM and the Dmax was above 75%.
